Measurements from paper PMC6162288, “On-chip spatiotemporal electrophysiological analysis of human stem cell derived cardiomyocytes enables quantitative assessment of proarrhythmia in drug development” (Scientific Reports, 2018).
Entries after “also recorded” stand apart in the source; their conditions may differ.

Assays:
lined-up hESC-CMs = experiment: MEA field potential recording of lined-up hESC-CMs (cFPD, CT, their STVs, ISI, beat rate, arrest); format: cell-based, human
Procedure: Human embryonic stem cell-derived cardiomyocytes clusters (hES-CMCs) were shipped from Cellectis (hES-CMCTM002, hES cell line SA002, Gothenburg, Sweden)[42],[43], and maintained in Dulbecco’s modified Eagle’s medium (DMEM) supplemented 20% heat-inactivated fetal bovaine serum, 1 mM GlutaMax, 100 U/mL penicillin, 0.1 mg/mL streptomycin, 1% nonessential amino acids and 0.1 mM β-mercaptoethanol (Invitrogen, Carsbad, CA, USA). Dispersed cardiomyocytes were isolated from hES-CMCs by a modification of the methods of Norström et al.[44]–[48]. […] The supernatant was gently aspirated with pipette, and a 5-hold volume of DMEM was added as stop solution. Remaining clusters were treats ed with the above process with several times. The supernatants were collected and centrifuged with 200 × g for 2–3 min at 4 °C. The resulting supernatant including dispersed cells was seeded into agarose microchambers on an MEA chip (MED-P530A; AlphaMED scientific. Co. Ltd., Japan)[40].
The MEA chip surface was prepared as follows. First, the chip surface was coated with collagen type I-C (Nitta Gelatin, Japan). After drying, the chip surface was coated with a 0.1% agarose gel. […] At >30 min before the start of experiment, the medium was changed to 2 mL pre-warmed fresh maintenance medium per chip.
Extracellular potential recordings of the lined-up hESC-CMs were performed using the MEA system at a sampling rate of 10 kHz with a low path filter of 2 kHz and high path filter of 1 Hz, and signals were amplified by 100–50,000 using the amplifier. The MEA chip with lined-up hESC-CMs was set in the FP measurement device and placed in a humidified cell culture incubator at 37 °C, 5% CO2. The signals were analyzed by Igor Pro 6.0 (WaveMetrics, Inc., USA) and FlexPro 7.0 (Weisang GmbH, Germany).
We adopted the same drug administration protocol as we examined previously[40] (Fig. 2B). Briefly, the MEA chips of lined-up cells for experiments were selected from the chips having 0.6–1.1 Hz beating frequency and ventricle-like waveforms of FP recordings (see Fig. 1B,D). The MEA chip was placed in the holder of the FP measurement device, and equilibrated for 5 min, and then the control FP waveforms were recorded for 10 min. Subsequently, the drug was applied to the medium at 1% dilution in serially increasing additions, and the FP waveforms were recorded for 10 min at each concentration. Finally, the drug-containing medium was replaced with fresh medium after washing three times. The last 50 beats extracted from 10 min recorded FP waveform data was used for beat rate, FPD (the time from first depolarization peak to broad repolarization peak) and CT (the time difference of the first peaks between separately placed electrodes in lined-upped cell-network) measurement at each concentration (Fig. 2C).
It was normalized (cFPD) to the beating rate of cardiomyocytes using Bazett’s correction formula based on the comparison of the slope of a plot of inter-spike interval and FPD, or corrected FPD by Bazett’s or Fridericia’s formulae (Fig. 3). The short-term variability (STV) of cFPD and CT, which was defined as the mean distance of points perpendicular to the line of identity in the Poincaré plot, was calculated ( STV=∑|D(n+1)−Dn|/(n×2) , where Dn represents the FPD and CT of n-th beating). STVs were last 50 beat data from 5 min extraction of cFPD and CT. To assess the arrhythmogenicity risk of test drugs, the mean values of cFPD, STVcFPD, CT and STVCT of each drug were plotted.

[1] = effective therapeutic plasma concentration; cited from earlier work
[2] = Conc. 10^2 nM (0.1 μM), change vs Ctrl.
[3] = Conc. 10^3 nM (1 μM), change vs Ctrl.
[4] = Conc. 10^−1 nM, change vs Ctrl.
[5] = Conc. 10^4 nM (10 μM), change vs Ctrl.
[6] = Conc. 10^5 nM (100 μM), change vs Ctrl.
[7] = Conc. 10^5 nM (100 μM), change vs Ctrl., listed as lidocaine

Cc1cccc(CCN2CCC(C(=O)c3ccc(NS(C)(=O)=O)cc3)CC2)n1 [E-4031]
STVcFPD (lined-up hESC-CMs; 1 μM): more than doubled | BR (beat rate) (lined-up hESC-CMs; Conc. 1 nM, change vs Ctrl.): 3.9% | Cond. Time (CT) (lined-up hESC-CMs; Conc. 1 nM, change vs Ctrl.): −4.3% | ISI (inter-spike interval) (lined-up hESC-CMs; Conc. 1 nM, change vs Ctrl.): −3.7% | STVCT (lined-up hESC-CMs; Conc. 1 nM, change vs Ctrl.): 19% | STVcFPD (lined-up hESC-CMs; Conc. 1 nM, change vs Ctrl.): −3.6% | cFPD (lined-up hESC-CMs; Conc. 1 nM, change vs Ctrl.): 0.69% | BR (beat rate) (lined-up hESC-CMs; Conc. 10 nM, change vs Ctrl.): 4.5% | Cond. Time (CT) (lined-up hESC-CMs; Conc. 10 nM, change vs Ctrl.): 2.1% | ISI (inter-spike interval) (lined-up hESC-CMs; Conc. 10 nM, change vs Ctrl.): −4.2% | STVCT (lined-up hESC-CMs; Conc. 10 nM, change vs Ctrl.): 5.7% | STVcFPD (lined-up hESC-CMs; Conc. 10 nM, change vs Ctrl.): 17% | cFPD (lined-up hESC-CMs; Conc. 10 nM, change vs Ctrl.): 7.1% | Cond. Time (CT) (lined-up hESC-CMs; [2]): 10% | STVCT (lined-up hESC-CMs; [2]): 43% | STVcFPD (lined-up hESC-CMs; [2]): 94% | cFPD (lined-up hESC-CMs; [2]): 30% | cFPD (lined-up hESC-CMs; Conc. 10^2 nM (0.1 μM), change vs Ctrl., listed as E-4301): 30% | BR (beat rate) (lined-up hESC-CMs; Conc. 10^2 nM, change vs Ctrl.): 5.1% | ISI (inter-spike interval) (lined-up hESC-CMs; Conc. 10^2 nM, change vs Ctrl.): −4.7% | Cond. Time (CT) (lined-up hESC-CMs; [3]): 49% | STVcFPD (lined-up hESC-CMs; [3]): 110% | cFPD (lined-up hESC-CMs; [3]): 47% | cFPD (lined-up hESC-CMs; Conc. 10^3 nM (1 μM), change vs Ctrl., listed as E-4301): 47% | BR (beat rate) (lined-up hESC-CMs; Conc. 10^3 nM, change vs Ctrl.): 5.8% | ISI (inter-spike interval) (lined-up hESC-CMs; Conc. 10^3 nM, change vs Ctrl.): −5.1% | BR (beat rate) (lined-up hESC-CMs; [4]): 2.6% | ISI (inter-spike interval) (lined-up hESC-CMs; [4]): −2.5% | STVCT (lined-up hESC-CMs; [4]): 52% | STVcFPD (lined-up hESC-CMs; [4]): 2.9% | cFPD (lined-up hESC-CMs; [4]): 0.52% | Cond. Time (CT) (lined-up hESC-CMs; Conc. 10^−1 nM, change vs Ctrl., 150 μm inter-electrode distance): 8.9% | CT (mean conduction time) (lined-up hESC-CMs; any tested concentration): did not significantly change; also recorded: did not increase

CCN(CC)CC(=O)Nc1c(C)cccc1C [Lidocaine, lidocaine]
cFPD change (lined-up hESC-CMs; 10–100 μM, P < 0.05): −18% | BR (beat rate) (lined-up hESC-CMs; Conc. 10 nM, change vs Ctrl.): 3.6% | ISI (inter-spike interval) (lined-up hESC-CMs; Conc. 10 nM, change vs Ctrl.): −3.4% | STVCT (lined-up hESC-CMs; Conc. 10 nM, change vs Ctrl.): 46% | STVcFPD (lined-up hESC-CMs; Conc. 10 nM, change vs Ctrl.): 54% | cFPD (lined-up hESC-CMs; Conc. 10 nM, change vs Ctrl.): 9.5% | Cond. Time (CT) (lined-up hESC-CMs; [2]): −6.0% | STVCT (lined-up hESC-CMs; [2]): 43% | STVcFPD (lined-up hESC-CMs; [2]): 38% | cFPD (lined-up hESC-CMs; [2]): 10% | BR (beat rate) (lined-up hESC-CMs; Conc. 10^2 nM, change vs Ctrl.): 4.4% | ISI (inter-spike interval) (lined-up hESC-CMs; Conc. 10^2 nM, change vs Ctrl.): −4.2% | Cond. Time (CT) (lined-up hESC-CMs; [3]): −7.4% | STVCT (lined-up hESC-CMs; [3]): 35% | STVcFPD (lined-up hESC-CMs; [3]): 54% | cFPD (lined-up hESC-CMs; [3]): 9.7% | BR (beat rate) (lined-up hESC-CMs; Conc. 10^3 nM, change vs Ctrl.): 2.8% | ISI (inter-spike interval) (lined-up hESC-CMs; Conc. 10^3 nM, change vs Ctrl.): −2.6% | Cond. Time (CT) (lined-up hESC-CMs; [5]): 4.7% | STVCT (lined-up hESC-CMs; [5]): 134% | STVcFPD (lined-up hESC-CMs; [5]): 345% | cFPD (lined-up hESC-CMs; [5]): −18% | STVCT (lined-up hESC-CMs; Conc. 10^4 nM (10 μM), change vs Ctrl., listed as lidocaine): 134% | BR (beat rate) (lined-up hESC-CMs; Conc. 10^4 nM, change vs Ctrl.): −48% | ISI (inter-spike interval) (lined-up hESC-CMs; Conc. 10^4 nM, change vs Ctrl.): 128% | Cond. Time (CT) (lined-up hESC-CMs; [6]): 22% | STVCT (lined-up hESC-CMs; [6]): 54% | STVcFPD (lined-up hESC-CMs; [6]): 143% | cFPD (lined-up hESC-CMs; [6]): −18% | Cond. Time (CT) (lined-up hESC-CMs; [7]): 22.1% | STVCT (lined-up hESC-CMs; [7]): 54% | BR (beat rate) (lined-up hESC-CMs; Conc. 10^5 nM, change vs Ctrl.): −51% | ISI (inter-spike interval) (lined-up hESC-CMs; Conc. 10^5 nM, change vs Ctrl.): 160% | CT (lined-up hESC-CMs; at equivalent concentrations of Nav1.5 IC50): increased | EPTC [1]: 5,970–25,603[69] nM
